The test system of test [1] is A375 cells. The test can be described thus: Inhibition of cancer cell growth, MTT or MTS assay, A375. The class given is cell-based. Conditions: Homo sapiens, A-375; 72 h incubation. How it is done: (§1) Inhibition of cell growth by compounds was measured using MTT or MTS assay. Tumor cell lines were purchased from ATCC (American Type Culture Collection, Manassas, Va.). All cell lines were maintained in RPMI 1640 (Hyclone) supplemented with 10% fetal bovine serum (FBS, Hyclone), glutamine (2 mM, Hyclone), and antibiotics (penicillin 100 U/mL and streptomycin 50 μg/mL) at 37° C. in a humidified atmosphere of 5% CO2 in air. Taxol (as a positive control, Sigma) and compounds were dissolved in DMSO (Sigma), and the final concentration of DMSO in the medium was 1%. Tumor cells were plated in 96-well plates at densities of about 2000 (A375) or 4000 (A549 and Colo205) cells/well of a 96-well plate and allowed to adhere/grow for 24 h. They were then treated with various concentrations of drug and incubated for 72 h. For MTT method, medium was then removed by inverting and tapping the plates. 100 μL of MTT (0.5 mg/ml) was added to each well followed by an incubated at 37° C. for 4 h. MTT was then removed and 200 μL of DMSO was added to each well, and the ODs at 570 nm were measured after a 5 second shaking cycle in a 96-well spectrophotometer. For MTS method, 20 μL MTS (CellTiter 96 Aqueous One Solution, Promega) was added to each well followed by an incubated at 37° C. for 2-4 h, solutions were then directly put in a 96-well spectrophotometer, and the ODs at 490 nm were measured.
(§2) All concentrations of compounds were tested in triplicate and controls were averaged over 4 wells. IC50 was calculated by plotting the concentration of compound vs the percentage of inhibition in treated wells using GraphPad Prism 5. […] The scale utilized in Tables […] is as follows: +++ less than 1000 nM; ++ between 1000 nM and 5000 nM; and + greater than 5000 nM. The scale utilized in Table 8 is as follows: +++ less than 2000 nM; ++ between 2000 nM and 5000 nM; and + greater than 5000 nM.

The test system of test [2] is A549 cells. Briefly: Inhibition of cancer cell growth, MTT or MTS assay, A549. Type of test: cell-based. The settings on record: Homo sapiens, 72 h incubation. How it is done: as §1, §2
Test [3] concerns the target BRAF V600E (Homo sapiens (Human), UniProt P15056, V600E). The test can be described thus: Inhibitory activity against kinase BRAF V600E, Z'-LYTE method (Invitrogen). Type of test: biochemical. The settings on record: 1 μM compound; read-out: Inhibition (% inhibition at 1 μM) against BRAF V600E. The method, then: Inhibitory activities Inhibitory activities of compounds against BRAF, and BRAF V600E were measured by Invitrogen using Z′-LYTE® Method as briefly described in the following. 4× Test compounds are dissolved in 1% DMSO. […] ATP solutions are diluted to a 4×ATP working concentration in Kinase Buffer (50 mM HEPES pH 7.5, 0.01% BRIJ-35, 10 mM MgCl2, 1 mM EGTA). Reaction started by 30-second shaking of mixture consisting of 2.5 μL 4× test compound, […] and 2.5 μL 4×ATP Solution on Bar-coded Corning, low volume NBS, black 384-well plate (Corning Cat. #3676). Then the mixture was incubated for 60-minute at room temperature for the kinase reaction, followed by addition of 5 μL of a 1:1024 dilution of development reagent A and 30-second plate shake. The mixture was then incubated for another 60-minute at room temperature for development reaction. Fluorescence was read by plate reader. IC50 was calculated by plotting the concentration of compound vs the percentage of inhibition in treated wells using GraphPad Prism 5.
Table 2 and 3 show % inhibition at 1 μM of several compounds of the invention against BRAF and BRAF V600E, respectively, using Z′-LYTE® method.
The scale utilized in Table 4 is as follows: +++ less than 100 nM; and ++ greater than 100 nM.

In test [4] the target is KDR (VEGFR2) (Homo sapiens (Human), UniProt P35968). Briefly: Inhibitory activity against kinase KDR, Z'-LYTE method (Invitrogen). Type of test: biochemical. Conditions: 1 μM compound; read-out: Inhibition (% inhibition at 1 μM) against KDR. The method, then: Inhibitory activities of compounds against KDR (VEGFR2) were also measured by Invitrogen using Z′-LYTE® Method as described above with the following modification. The 2× KDR (VEGFR2)/Tyr 01 mixture is prepared in 50 mM HEPES pH 7.5, 0.01% BRIJ-35, 10 mM MgCl2, 1 mM EGTA. The final 10 μL Kinase Reaction consists of 0.5-11.7 ng KDR (VEGFR2) and 2 μM Tyr 01 in 50 mM HEPES pH 7.5, 0.01% BRIJ-35, 10 mM MgCl2, 1 mM EGTA. After the 1 hour Kinase Reaction incubation, 5 μL of a 1:256 dilution of Development Reagent B is added.
The scale utilized in Table 5 is as follows: +++ less than 100 nM; and ++ greater than 100 nM

The structures appear in SMILES notation. A value given as a limit tells only on which side of the number the result lay.

As a reminder, the IC50 is the concentration needed to halve the response being measured. Lower therefore signals greater potency in that assay. One may read the inhibition as the change of the read-out against control, counted positive when it falls.

BRAF V600E, sequence (P15056 whole entry V600E): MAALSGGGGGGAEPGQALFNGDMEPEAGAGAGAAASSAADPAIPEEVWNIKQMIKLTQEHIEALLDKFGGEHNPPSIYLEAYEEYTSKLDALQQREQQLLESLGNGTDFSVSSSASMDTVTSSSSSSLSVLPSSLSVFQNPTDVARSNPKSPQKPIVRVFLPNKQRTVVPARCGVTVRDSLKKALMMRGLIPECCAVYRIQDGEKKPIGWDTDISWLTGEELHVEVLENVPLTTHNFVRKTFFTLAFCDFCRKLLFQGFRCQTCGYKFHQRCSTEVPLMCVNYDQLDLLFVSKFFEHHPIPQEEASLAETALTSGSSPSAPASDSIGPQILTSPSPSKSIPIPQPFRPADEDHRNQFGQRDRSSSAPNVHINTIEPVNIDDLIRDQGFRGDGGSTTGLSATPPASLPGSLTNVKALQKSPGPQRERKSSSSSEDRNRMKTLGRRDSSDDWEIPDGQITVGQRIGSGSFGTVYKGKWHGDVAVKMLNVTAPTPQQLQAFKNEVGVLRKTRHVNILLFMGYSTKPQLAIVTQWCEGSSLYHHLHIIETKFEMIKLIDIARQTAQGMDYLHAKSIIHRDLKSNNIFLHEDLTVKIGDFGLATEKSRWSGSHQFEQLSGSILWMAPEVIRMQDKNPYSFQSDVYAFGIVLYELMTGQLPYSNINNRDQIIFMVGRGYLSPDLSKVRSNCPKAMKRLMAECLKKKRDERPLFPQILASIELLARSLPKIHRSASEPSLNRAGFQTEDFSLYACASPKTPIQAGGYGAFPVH
KDR (VEGFR2), sequence (P35968 20-1356): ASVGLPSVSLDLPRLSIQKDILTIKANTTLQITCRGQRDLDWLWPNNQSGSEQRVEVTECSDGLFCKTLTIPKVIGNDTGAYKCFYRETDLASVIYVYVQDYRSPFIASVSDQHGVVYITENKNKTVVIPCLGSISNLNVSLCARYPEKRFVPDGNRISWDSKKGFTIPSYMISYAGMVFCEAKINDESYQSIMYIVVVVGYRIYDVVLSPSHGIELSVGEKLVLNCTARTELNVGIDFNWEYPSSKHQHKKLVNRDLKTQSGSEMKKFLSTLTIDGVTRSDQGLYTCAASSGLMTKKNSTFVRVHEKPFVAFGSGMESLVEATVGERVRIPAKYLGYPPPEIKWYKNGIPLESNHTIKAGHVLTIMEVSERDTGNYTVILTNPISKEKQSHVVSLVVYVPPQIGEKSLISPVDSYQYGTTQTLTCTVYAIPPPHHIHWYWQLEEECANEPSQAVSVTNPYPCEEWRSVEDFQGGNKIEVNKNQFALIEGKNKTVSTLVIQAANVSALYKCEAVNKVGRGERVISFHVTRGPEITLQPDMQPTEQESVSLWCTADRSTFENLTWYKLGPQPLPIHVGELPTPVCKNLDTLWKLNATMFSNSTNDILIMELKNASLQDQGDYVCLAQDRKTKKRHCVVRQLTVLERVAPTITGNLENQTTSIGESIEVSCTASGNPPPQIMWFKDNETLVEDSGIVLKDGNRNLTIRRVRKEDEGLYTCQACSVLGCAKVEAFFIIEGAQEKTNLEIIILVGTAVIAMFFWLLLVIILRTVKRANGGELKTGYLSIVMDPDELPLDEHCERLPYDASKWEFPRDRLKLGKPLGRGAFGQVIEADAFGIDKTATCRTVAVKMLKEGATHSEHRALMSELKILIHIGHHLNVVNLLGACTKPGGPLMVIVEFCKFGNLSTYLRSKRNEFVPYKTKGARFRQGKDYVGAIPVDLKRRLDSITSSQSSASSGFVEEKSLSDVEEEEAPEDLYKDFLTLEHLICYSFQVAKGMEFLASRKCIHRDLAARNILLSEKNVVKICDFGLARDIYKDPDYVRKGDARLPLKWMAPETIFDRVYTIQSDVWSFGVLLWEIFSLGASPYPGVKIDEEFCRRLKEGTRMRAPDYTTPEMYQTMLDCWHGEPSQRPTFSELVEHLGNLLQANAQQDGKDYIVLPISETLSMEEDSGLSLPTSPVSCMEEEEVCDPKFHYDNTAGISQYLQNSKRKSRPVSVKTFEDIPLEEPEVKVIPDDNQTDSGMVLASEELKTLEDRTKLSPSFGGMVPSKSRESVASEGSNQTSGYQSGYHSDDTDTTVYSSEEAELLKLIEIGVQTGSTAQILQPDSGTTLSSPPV

For `O=C(Nc1ccc(F)c(Oc2ccc3ncc(N4CCOCC4)nc3c2)c1)c1ccc(Cl)c(C(F)(F)F)c1` [Compound C008, 4-chloro-N-(4-fluoro-3-((3-morpholinoquinoxalin-6-yl)oxy)phenyl)-3-(trifluoromethyl)benzamide], the IC50 was in the range of 1 to 5 µM in test [1] and 2 to 5 µM in test [2].
In the case of `O=C(Nc1ccc(Oc2ccc3nccnc3c2)cc1)c1cccc(F)c1` [Compound C077, 3-fluoro-N-(4-(quinoxalin-6-yloxy)phenyl)benzamide], the figures for the half-maximal inhibitory concentration (IC50) in test [1] and in test [2] were 1 to 5 µM and greater than 5 µM, respectively. The inhibition at 1 µM in test [3] is less than 70%.
The like results for `O=C(Nc1cc(F)cc(Oc2ccc3nccnc3c2)c1)c1ccc(Cl)c(C(F)(F)F)c1` [Compound C016, 4-chloro-N-(3-fluoro-5-(quinoxalin-6-yloxy)phenyl)-3-(trifluoromethyl)benzamide] were, in that order, greater than 5 µM, greater than 5 µM and greater than 89%.
In test [1], `CCCNC(=O)Nc1cccc(Oc2ccc3nccnc3c2)c1` [Compound C071, 1-propyl-3-(3-(quinoxalin-6-yloxy)phenyl)urea] gave an IC50 greater than 5 µM. The inhibition at 1 µM in test [3] and in test [4] was less than 70% throughout.
`O=C(Nc1cc(F)cc(Oc2ccc3nccnc3c2)c1)Nc1ccc(Cl)c(C(F)(F)F)c1` [Compound C022, 1-(4-chloro-3-(trifluoromethyl)phenyl)-3-(3-fluoro-5-(quinoxalin-6-yloxy)phenyl)urea]: the results for the IC50 in test [1] and in test [2] were less than 1 µM and less than 2 µM, respectively. Further, the inhibition at 1 µM in test [3] and in test [4] was 70 to 89% in each case.
As to `O=C(Nc1ccc(Oc2ccc3nccnc3c2)cc1F)c1ccnc(C(F)(F)F)c1` [Compound C100, N-(2-fluoro-4-(quinoxalin-6-yloxy)phenyl)-2-(trifluoromethyl)isonicotinamide], in test [1], the IC50 is greater than 5 µM. For the same molecule, in test [3], the inhibition at 1 µM is less than 70%.
As to `CCCS(=O)(=O)Nc1cccc(Oc2ccc3nccnc3c2)c1` [Compound C007, N-(3-(quinoxalin-6-yloxy)phenyl)propane-1-sulfonamide], the IC50 in test [1] and in test [2] was greater than 5 µM in each case.
For `O=C(Nc1ccc(Oc2ccc3nccnc3c2)cc1)c1ccc(Cl)c(C(F)(F)F)c1` [Compound C079, 4-chloro-N-(4-(quinoxalin-6-yloxy)phenyl)-3-(trifluoromethyl)benzamide], the IC50 in test [1] and in test [2] was greater than 5 µM throughout. Besides, the inhibition at 1 µM in test [3] was less than 70%.
`O=C(Nc1ccc(C(F)(F)F)cc1)Nc1ccc(Oc2ccc3nccnc3c2)cc1F` [Compound C097, 1-(2-fluoro-4-(quinoxalin-6-yloxy)phenyl)-3-(4-(trifluoromethyl)phenyl)urea]: the IC50 in test [1] and in test [2] was greater than 5 µM each time. In addition, the inhibition at 1 µM in test [3] lay in the range of 70 to 89%.
`CCCS(=O)(=O)Nc1cc(F)cc(Oc2ccc3nccnc3c2)c1` [Compound C019, N-(3-fluoro-5-(quinoxalin-6-yloxy)phenyl)propane-1-sulfonamide] registered an IC50 in test [1] of 1 to 5 µM. For the same molecule, the inhibition at 1 µM in test [3] was less than 70%.
For the molecule `CCCS(=O)(=O)Nc1ccc(F)c(Oc2ccc3nccnc3c2)c1` [Compound C013, N-(4-fluoro-3-(quinoxalin-6-yloxy)phenyl)propane-1-sulfonamide], the IC50 in test [1] and in test [2] was greater than 5 µM throughout.
Regarding `O=C(Nc1cc(F)cc(Oc2ccc3nccnc3c2)c1)c1cccc(F)c1` [Compound C014, 3-fluoro-N-(3-fluoro-5-(quinoxalin-6-yloxy)phenyl)benzamide], the IC50 in test [1] and in test [2] was greater than 5 µM each time. In test [3], the inhibition at 1 µM was in the range of 70 to 89%.
`CCCS(=O)(=O)Nc1ccc(Oc2ccc3nccnc3c2)cc1` [Compound C080, N-(4-(quinoxalin-6-yloxy)phenyl)propane-1-sulfonamide]: the IC50 in test [1] and in test [2] was greater than 5 µM in each case.
Regarding `O=C(Nc1cccc(Cl)c1)Nc1ccc(Oc2ccc3nccnc3c2)c(F)c1` [Compound C101, 1-(3-chlorophenyl)-3-(3-fluoro-4-(quinoxalin-6-yloxy)phenyl)urea], the IC50 in test [1] is less than 1 µM. For the same molecule, the inhibition at 1 µM in test [3] is 70 to 89%.
On to `O=C(Nc1ccc(Oc2ccc3ncc(N4CCOCC4)nc3c2)cc1)Nc1ccc(C(F)(F)F)cc1` [Compound C083, 1-(4-((3-morpholinoquinoxalin-6-yl)oxy)phenyl)-3-(4-(trifluoromethyl)phenyl)urea], for which, in test [1], the IC50 was greater than 5 µM. Also, the inhibition at 1 µM in test [3] and in test [4] was 70 to 89% each time.
Take `CCCS(=O)(=O)Nc1ccc(F)c(Oc2ccc3ncc(N4CCOCC4)nc3c2)c1` [Compound C012, N-(4-fluoro-3-((3-morpholinoquinoxalin-6-yl)oxy)phenyl)propane-1-sulfonamide]: the half-inhibitory concentration (IC50) in test [1] and in test [2] was greater than 5 µM in each case.
Molecule `O=C(Nc1cccc(Oc2ccc3nccnc3c2)c1)c1cccc(F)c1` [Compound C004, 3-fluoro-N-(3-(quinoxalin-6-yloxy)phenyl)benzamide] gave an IC50 in test [1] greater than 5 µM. Further, the inhibition at 1 µM in test [3] was 70 to 89%; in test [4], less than 70%.
In the same order, the values of `O=C(Nc1ccc(F)cc1)Nc1ccc(F)c(Oc2ccc3ncc(N4CCOCC4)nc3c2)c1` [Compound C053, 1-(4-fluoro-3-((3-morpholinoquinoxalin-6-yl)oxy)phenyl)-3-(4-fluorophenyl)urea] are 1 to 5 µM, greater than 89% and 70 to 89%.
As for `O=C(Nc1ccc(Oc2ccc3nccnc3c2)cc1)c1cccc(C(F)(F)F)c1` [Compound C078, N-(4-(quinoxalin-6-yloxy)phenyl)-3-(trifluoromethyl)benzamide], in test [1], the IC50 was greater than 5 µM. In addition, the inhibition at 1 µM in test [3] was in the range of 70 to 89%.
`O=C(Nc1ccc(F)c(Oc2ccc3nccnc3c2)c1)c1cccc(F)c1` [Compound C017, 3-fluoro-N-(4-fluoro-3-(quinoxalin-6-yloxy)phenyl)benzamide]: in test [1], the IC50 was greater than 5 µM. For the same molecule, in test [3], the inhibition at 1 µM lay in the range of 70 to 89%.
As to `O=C(Nc1cccc(F)c1)Nc1cc(F)cc(Oc2ccc3nccnc3c2)c1` [Compound C020, 1-(3-fluoro-5-(quinoxalin-6-yloxy)phenyl)-3-(3-fluorophenyl)urea], the IC50 in test [1] is greater than 5 µM; in test [2], 2 to 5 µM. Also, in test [3], the inhibition at 1 µM fell in the range of 70 to 89%.
In test [1], `O=C(Nc1ccc(Oc2ccc3nccnc3c2)cc1F)c1cncc(C(F)(F)F)c1` [Compound C099, N-(2-fluoro-4-(quinoxalin-6-yloxy)phenyl)-5-(trifluoromethyl)nicotinamide] gave a concentration for half-maximal inhibition (IC50) greater than 5 µM. Moreover, the inhibition at 1 µM in test [3] was less than 70%.

(Values after US10590106B2, “Certain chemical entities, compositions, and methods” (NeuPharma, Inc., priority 2012, dated 2020).)
